From patent US20260144769A1, “4-PHENYLBUTYRATE RESTORED GABA UPTAKE AND REDUCED SEIZURES IN SLC6A1 VARIANT-MEDIATED DISORDERS” (Vanderbilt University, priority 2022, published 2026)

Assays:
[1] = molecular target: T1, GAT-1 in corrected isogenic control astrocytes (Homo sapiens, UniProt P30531); assay: 3H GABA uptake, corrected isogenic control iPSC derived astrocytes; assay type: cell-based; conditions: PBA 2 mM, 24 hrs
T1 construct: endogenous in cells; host or cells: astrocytes differentiated from CRISPR-corrected isogenic control iPSCs
Procedure: (§1) Live images of human neural progenitor cells (NPCs), astrocytes and GABAergic inhibitory neurons differentiated from the human induced pluripotent stem cells (iPSCs) on the day of experiment. […] The DMSO treated corrected or patient cells was taken as 1. […] GABA flux was measured after 30 min transport at room temperature. The influx of GABA, expressed in pmol/μg protein/min, was averaged from duplicates for each condition and for each transfection. The average counting was DMSO treated condition taken as 1. In FIG. 5B, FIG. 5D and FIG. 5F, 966 stands for CI-966 (50 μM) and 711 stands for NNC-711 (35 μM) that was applied 30 min to the astrocytes transfected with the wildtype GAT-1^YFP before preincubation and removed during preincubation. In FIGS. 5B and D, ***p<0.001 vs. corrected DMSO treated. § § <0.01, § § § p<0.001 vs. patient DMSO treated. […] In FIGS. 5B-E, n=4-8 batches of cells. In FIG. 5F, n=4-5 different transfections). Unpaired t test was used for FIG. 5C and FIG. 5E. […] Values were expressed as mean±S.E.M.). […]
(§2) Briefly, cells were cultured in […] dishes for 3 days before the GABA uptake experiment in DMEM with 10% fetal bovine serum and 1% penicillin/streptomycin. […] Glacial acetic acid was added, and lysates were then determined on a liquid scintillator with QuantaSmart. […]

[2] = tested on: GAT-1 in human iPSC-derived neurons; assay: 3H GABA uptake, human iPSC-derived neurons; assay type: cell-based; conditions: PBA treated human iPSC-derived neurons; PBA 2 mM, 24 hrs
Procedure: as §1, §2

T1 sequence (P30531 whole entry): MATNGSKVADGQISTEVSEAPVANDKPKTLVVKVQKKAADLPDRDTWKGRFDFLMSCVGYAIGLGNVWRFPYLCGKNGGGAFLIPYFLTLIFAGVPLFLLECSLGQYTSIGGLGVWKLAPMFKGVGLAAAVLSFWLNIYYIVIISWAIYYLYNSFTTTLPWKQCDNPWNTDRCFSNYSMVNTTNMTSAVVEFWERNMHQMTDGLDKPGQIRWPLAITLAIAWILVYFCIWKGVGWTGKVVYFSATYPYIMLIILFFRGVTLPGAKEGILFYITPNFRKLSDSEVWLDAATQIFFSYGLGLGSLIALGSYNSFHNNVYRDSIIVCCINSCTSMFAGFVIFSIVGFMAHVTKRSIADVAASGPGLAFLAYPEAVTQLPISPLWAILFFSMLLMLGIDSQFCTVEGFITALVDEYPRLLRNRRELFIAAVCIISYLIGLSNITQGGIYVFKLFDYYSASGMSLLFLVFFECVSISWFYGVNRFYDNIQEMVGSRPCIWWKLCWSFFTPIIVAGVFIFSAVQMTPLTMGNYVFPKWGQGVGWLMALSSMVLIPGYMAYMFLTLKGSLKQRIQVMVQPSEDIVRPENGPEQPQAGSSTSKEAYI

## O=C(O)CCCc1ccccc1 [PBA, 4-phenylbutyric acid]
[1]
  GABA uptake normalized to its DMSO treated: 1.173±0.026
[2]
  increase of GABA uptake: ~20%
